Counter-ions that a name gives are not always drawn.
How the values were obtained:
NHE1 = target: T1, NHE1 (Homo sapiens, UniProt P19634); assay: NHE inhibition FLIPR test (intracellular pH recovery, BCECF); type: cell-based; conditions: transfected LAP-1 cell line expressing NHE1 subtype, pHi recovery after acidification
T1 construct: expressed in transfected cells
Method: The NHE inhibitory activities (IC50 values) of the compounds according to the invention were determined by a FLIPR test.
The test is performed in the FLIPR (Fluorescent Imaging Plate Reader) equipped with clear-bottomed and black-walled 96-well microtitration plates.
The growth medium for the transfected cells (Iscove+10% foetal calf serum) also comprises G418 as selection antibiotic to ensure the presence of transfected sequences.
The actual test begins by eliminating the growth medium and adding 100 μl of loading buffer per well (5 μM of BCECF-AM [2′,7′-bis(2-carboxyethyl)-5-(6)-carboxyfluoresceine acetoxymethyl ester] in 20 mM of NH4Cl, 115 mM of choline chloride, 1 mM of CaCl2, 5 mM of KCl, 20 mM of HEPES and 5 mM of glucose; pH 7.4 (adjusted with KOH). The cells are then incubated for 20 minutes at 37° C. This incubation results in the loading of the fluorescent dye into the cells, the fluorescence intensity of which depends on the pHi, and on the NH4Cl, which results in a slight basification of the cells.
The precursor BCECF-AM, a non-fluorescent dye, is, as an ester, capable of crossing the membrane. The actual dye, which is incapable of crossing the membrane, is released inside the cell by esterases.
After this 20-minute incubation, the loading buffer, which comprises NH4Cl and free BCECF-AM, is removed by washing three times in the cell washing device (Tecan Columbus), each wash being performed with 400 μl of washing buffer (133.8 mM of choline chloride, 4.7 mM of KCl, 1.25 mM of MgCl2,1.25 mM of CaCl2, 0.97 mM of K2HPO4, 0.23 mM of KH2PO4, 5 mM of HEPES and 5 mM of glucose; pH 7.4 (adjusted with KOH)). The residual volume remaining in the wells is 90 μl (possibly between 50 and 125 μl). This washing step removes the free BCECF-AM and results in an intracellular acidification (pHi of 6.3–6.4) due to the removal of the external ammonium ions.
As the equilibrium of the intracellular ammonium with the aqueous ammonia and the protons, by removal of the extracellular ammonium and by the subsequent immediate crossing of the aqueous ammonia across the cell membrane, is disrupted, the washing process results in intracellular protons remaining, which is the cause of the intracellular acidification. This acidification can result finally in the death of the cells if it lasts long enough. It is important here for the washing buffer to be free of sodium (<1 mM), otherwise the extracellular sodium ions would result in an immediate increase in the pHi on account of the activity of the cloned NHE isoforms. It is also important for all the buffers used (loading buffer, washing buffer and regeneration buffer) not to contain any HCO3^− ions, otherwise the presence of bicarbonate would result in the activation of bicarbonate-dependent systems that disrupt the pHi regulation, which systems are contained in the LAP-1 parental cell line.
The microtiter plates containing acidified cells are then transferred (up to 20 minutes after the acidification) to the FLIPR. In the FLIPR, the intracellular fluorescent dye is activated with light of a wavelength of 488 nm, which is generated by an argon laser, and the measuring parameters (laser power, illumination time and diaphragm of the […] camera integrated into the FLIPR) are chosen such that the average value of the fluorescent signal per well is between 30,000 and 35,000 relative fluorescence units.
The actual measurement in the FLIPR starts with a photograph being taken by the CCD camera every two seconds under software control. After 10 seconds, the increase in the intracellular pH is initiated by adding 90 μl. of regeneration buffer (133.8 mM of NaCl, 4.7 mM of KCl, 1.25 mM of MgCl2, 1.25 mM of CaCl2, 0.97 mM of K2HPO4, 0.23 mM of KH2PO4, 10 mM of HEPES and 5 mM of glucose; pH 7.4 (adjusted with NaOH)) using a 96-well pipette device incorporated into the FLIPR. Some wells, to which is added pure regeneration buffer, serve as positive controls (100% NHE activity). […]

T1 sequence (P19634 whole entry, species assumed): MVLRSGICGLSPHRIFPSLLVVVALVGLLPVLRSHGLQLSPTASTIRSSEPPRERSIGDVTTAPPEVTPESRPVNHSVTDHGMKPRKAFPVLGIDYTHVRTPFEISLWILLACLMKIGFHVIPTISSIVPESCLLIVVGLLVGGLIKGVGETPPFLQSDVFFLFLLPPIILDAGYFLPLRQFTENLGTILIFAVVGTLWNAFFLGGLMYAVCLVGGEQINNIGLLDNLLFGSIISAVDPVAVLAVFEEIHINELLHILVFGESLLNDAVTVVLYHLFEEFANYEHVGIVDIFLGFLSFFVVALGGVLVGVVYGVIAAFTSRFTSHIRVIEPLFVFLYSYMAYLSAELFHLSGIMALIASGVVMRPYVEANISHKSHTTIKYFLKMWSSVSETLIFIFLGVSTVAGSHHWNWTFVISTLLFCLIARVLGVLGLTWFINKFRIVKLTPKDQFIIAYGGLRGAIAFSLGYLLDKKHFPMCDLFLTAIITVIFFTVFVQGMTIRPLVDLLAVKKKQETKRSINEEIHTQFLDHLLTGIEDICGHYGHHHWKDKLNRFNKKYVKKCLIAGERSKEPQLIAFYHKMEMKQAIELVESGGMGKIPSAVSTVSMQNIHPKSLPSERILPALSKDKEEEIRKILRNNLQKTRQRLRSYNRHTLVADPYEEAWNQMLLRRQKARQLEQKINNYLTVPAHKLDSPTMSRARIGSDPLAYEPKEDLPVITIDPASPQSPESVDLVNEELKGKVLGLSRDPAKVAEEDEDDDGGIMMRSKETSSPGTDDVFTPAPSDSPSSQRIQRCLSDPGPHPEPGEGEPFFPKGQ

IC50 (NHE1) [nM] | melting point [°C] | Structure (SMILES)
3 | 164 | N=C(N)NC(=O)c1cn(-c2ccnc3ccccc23)c2ncccc12 [Example 1, N-[1-(Quinolin-4-yl)-1H-pyrrolo[2,3-b]pyridine-3-carbonyl]guanidine]
660 | – | N=C(N)NC(=O)c1cn(-c2cc(O)nc3ccccc23)c2ncccc12 [Example 10, N-[1-(2-Hydroxy-quinolin-4-yl)-1H-pyrrolo[2,3-b]pyridine-3-carbonyl]-guanidine]
26 | – | Cc1cc(-n2cc(C(=O)NC(=N)N)c3cccnc32)c2ccccc2n1 [Example 8, N-[1-(2-Methylquinolin-4-yl)-1H-pyrrolo[2,3-b]pyridine-3-carbonyl]guanidine hydrochloride]
15 | – | N=C(N)NC(=O)c1cn(-c2nccc3ccccc23)c2ncccc12 [Example 3, N-[1-(Isoquinolin-1-yl)-1H-pyrrolo[2,3-b]pyridine-3-carbonyl]guanidine]

More lines, now with the values behind:

Structure (SMILES) | IC50 (NHE1) [nM] | melting point [°C]
N=C(N)NC(=O)c1cn(-c2ccncc2)c2ncccc12 [Example 2, N-[1-(Pyridin-4-yl)-1H-pyrrolo[2,3-b]pyridine-3-carbonyl]guanidine] | 10 | 210
Cl.N=C(N)NC(=O)c1cn(-c2ccccn2)c2ncccc12 [Example 5, N-[1-(Pyridin-2-yl)-1H-pyrrolo[2,3-b]pyridine-3-carbonyl]guanidine hydrochloride] | 18 | 205 to 207
N=C(N)NC(=O)c1cn(-c2ccc3ccccc3n2)c2ncccc12 [Example 4, N-[1-(Quinolin-2-yl)-1H-pyrrolo[2,3-b]pyridine-3-carbonyl]guanidine] | 6240 | –
CS(=O)(=O)c1ccc(-n2cc(C(=O)NC(=N)N)c3cccnc32)cc1 (as salt: hydrochloride) [Example 6, N-[1-(4-(Methylsulfonyl)phenyl)-1H-pyrrolo[2,3-b]pyridine-3-carbonyl]guanidine hydrochloride] | – | 266 to 270
CN(C)c1cccc(-n2cc(C(=O)NC(=N)N)c3cccnc32)c1 [Example 7, N-[1-(3-(Dimethylamino)phenyl)-1H-pyrrolo[2,3-b]pyridine-3-carbonyl]guanidine] | 3 | –
Cn1ccc2c(-n3cc(C(=O)NC(=N)N)c4cccnc43)ncnc21 [Example 9, N-[1-(7-Methyl-7H-pyrrolo[2,3-d]pyrimidin-4-yl)-1H-pyrrolo[2,3-b]pyridine-3-carbonyl]-guanidine] | 37 | > 260
CS(=O)(=O)c1ccc(-n2cc(C(=O)NC(=N)N)c3cccnc32)cc1 [Example 6, N-[1-(4-(Methylsulfonyl)phenyl)-1H-pyrrolo[2,3-b]pyridine-3-carbonyl]guanidine hydrochloride] | 3760 | –
